Consider two molecules from patent US20140057884A1, “PHARMACEUTICAL COMPOSITION FOR PREVENTING OR TREATING LIVER CANCER COMPRISING STIGMASTEROL AND 5 BETA-HYDROXYSITOSTANOL ISOLATED FROM NAVICULA INCERTA” (PUKYONG NATIONAL UNIVERSITY INDUSTRY-UNIVERSITY CO, priority 2012, published 2014).

What all share (format): cell-based, human
One data set is described as follows: MTT cell viability assay. The following applies: human. As for the experimental part: (§1) Cell viability was measured using MTT [3-(4,5-dimethylthiazol-2-yl)-2,5-diphenyltetrazolium bromide] assay utilizing […] MTT is reduced to purple formazan by the action of mitochondrial dehydrogenase which has viability only in living cells.
(§2) The HepG2 cells were grown in 96-well plates at a density of 2×10^4 cells/well. After 24 h, cells were treated with different concentrations ([…], 20 μM) of stigmasterol and 5β-hydroxysitostanol. After incubation for 24 h, the cells were incubated with 100 μL of MTT (1 mg/mL) for 4 h. Finally, DMSO was added so that the amount of formazan crystal was determined by measuring the absorbance at 550 nm using a multidetection microplate reader.
On the technique in general: Tetrazolium assays rely on reduction of a dye to a coloured formazan, in cell work by metabolically active cells.

Data set [1] relates to HepG2 cells. The experiment in a line: MTT cell viability assay. Particulars: for cell viability with increasing concentrations: HepG2 cells, 5-20 μM, 24 h. As to the method: as §1, §2
For data set [2], the system named is HepG2 cells. As to the kind of experiment: Observation of morphological changes of the cells (light microscope; fluorescence microscope after Hoechst 33342 staining). The following applies: 24 h; for shape of the attached HepG2 cells / number of attached cells (living cells): light microscope; for nuclei of the attached HepG2 cells: increasing concentrations (5, 10, 20 μM), Hoechst 33342, fluorescence microscope; for number of attached cells (living cells): increasing doses. As to the method:
HepG2 ells were grown in 12-well plates at a density of 2×10^4 cells/well. After overnight incubation, cells were treated with different concentrations ([…], 20 μM) of stigmasterol and 5β-hydroxysitostanol and incubated for another 24 h. The cells were washed with PBS. After washing, 4% (v/v) formaldehyde solution was dissolved in PBS and added to the plate, and left for 1 h at room temperature. The fixed cells were detected by a light microscope.
Further, the HepG2 cells were grown in 12-well plates at a density of 2×10^4 cells/well. After overnight incubation, cells were treated with different concentrations (5 μM, 10 μM, 20 μM) of stigmasterol and 5β-hydroxysitostanol and incubated for another 24 h. The cells were then washed with PBS. After washing, 4% (v/v) formaldehyde solution was dissolved in PBS and added to the plate, and left for 1 h at room temperature so that cells were fixated. The fixed cells were stained with staining dye, Bisbenzimide Hoechst 33342 and left for 1 h at room temperature. The stained cells were observed under fluorescence microscope.

Data set [3] deals with HepG2 cells. As to the kind of experiment: Cell cycle analysis (PI staining, FACS). Particulars: for G2/M phase of the cell cycle as the concentration increased: HepG2 cells, 5, 10, 20 μM; for G2/M phase of the cell cycle: HepG2 cells, highest concentration (20 μM). As for the experimental part:
The HepG2 cells were cultured in 6 cm^2 dishes treated with different concentrations (5 μM, 10 μM, 20 μM) of stigmasterol and 5β-hydroxysitostanol. The cells were stained with propidium iodide (PI), and the cell cycle was analyzed by measuring the amount of DNA with FACS.

The test system of data set [4] is HepG2 cells. As to the kind of experiment: RT-PCR analysis of mRNA expression of apoptosis-related genes. As for the experimental part:
HepG2 cells treated with stigmasterol and 5β-hydroxysitostanol were treated with TRIzol® reagent were transferred to microtubes at each concentration. 200 μl, of chloroform was added to each tube and microtubes were centrifuged at 12,000×g for 15 min. After centrifugation, supernatant phase was transferred to a new microtube and mixed with isopropanol at the ratio of 1:1. After incubation for 10 min at room temperature and centrifugation at 12,000×g for 10 min, supernatant was discarded and RNA pellet was washed, followed by centrifugation at 12,000×g for 15 min. Following removal of ethanol, RNA pellet was suspended in DEPC-treated water and so that RNA pellet was dissolved at 55° C. for 10 min. Dissolved RNA pellet was kept at −20° C. for further experiments.
RT-PCR was performed to check specific mRNA expression in HepG2 cells.
Thirteen μg of RNA dissolved in DEPC— treated water and 2 μL of oligo (di) were added to PCR microtubes and denaturated at 70° C. for 5 min in a thermal cycler. Later, RT-PCR mastermix was added to microtubes to synthesize cDNA. Primers corresponding to specific RNA were bound to the synthesized cDNA, and gene amplification was carried out with the thermal cycler. The PCR products were electrophoresed on 1% agarose gel and bands of the respective primers were checked with UV.

Data set [5] relates to HepG2 cells. The experiment in a line: Western blotting assay. Particulars: HepG2 cells, 5, 10, 20 μM, 24 h, Western blot. As to the method:
Western blotting assay was performed to investigate specific […] expression of HepG2 cells.
HepG2 cells were cultured at a density of 1×10^4 cells/ml in 10 cm^2 culture dishes for 24 h. The cells were then treated with different concentrations (5 μM, 10 μM, 20 μM) of stigmasterol and 5β-hydroxysitostanol for 24 h. The cells were lysed in cell lysis buffer to give protein extract. The extracted protein was separated by molecular weight using SDS electrophoresis. Corresponding antibodies were attached to intended protein and the protein bands were detected with ECL solution using LAS-3000 system.
A general note: In western blotting, separated proteins are transferred to a membrane and probed.

Like-named read-outs stand apart in the source and are kept apart here.

In “MTT cell viability assay”, `CCC(CCC(C)C1CCC2C3CCC4(O)CC(O)CCC4(C)C3CCC12C)C(C)C` (stereo not drawn) [5β-hydroxysitostanol] gave a cytotoxicity at 24 h, 5 μM of around 6%; a cytotoxicity at 24 h, 10 μM of around 9%; a cytotoxicity at 24 h, 20 μM of around 15%. Also, in the data set with HepG2 cells [1], the “cytotoxicity according to concentration” value was “no cytotoxicity” and the “cell viability with increasing concentrations” value is “dose-dependent decrease”. In addition, in the data set with HepG2 cells [2], the “shape of the attached HepG2 cells” value is “shrinkage”, the “nuclei of the attached HepG2 cells” value is reported as “significantly condensed” and the “number of attached cells (living cells)” value is given as “remarkably reduced”. For the same molecule, in the data set on HepG2 cells [3], the “G2/M phase of the cell cycle as the concentration increased” value is on record as “increased” and the “G2/M phase of the cell cycle” value was 25.83%. Moreover, in the data set on HepG2 cells [4], the “expression of caspase-8, Bax and FASL” value is “upregulates”. The “expression of cell apoptosis inducing factors caspase-8, 9” value in the data set with HepG2 cells [5] is on record as “upregulate”.

Turning to `CC[C@H](/C=C/[C@@H](C)[C@H]1CC[C@H]2[C@@H]3CC=C4C[C@@H](O)CC[C@]4(C)[C@H]3CC[C@]12C)C(C)C` [stigmasterol], the cytotoxicity at 24 h, 5 μM in “MTT cell viability assay” (HepG2 cells, 5 μM, 24 h, MTT, read-out: inhibition of cell viability (rate)) is around 40%. The cytotoxicity at 24 h, 10 μM in the data set “MTT cell viability assay” (HepG2 cells, 10 μM, 24 h, MTT, read-out: inhibition of cell viability (rate)) is around 43%. In the data set “MTT cell viability assay” (HepG2 cells, 20 μM, 24 h, MTT, read-out: inhibition of cell viability (rate)), the cytotoxicity at 24 h, 20 μM was around 54%. The “cell viability with increasing concentrations” value in the data set on HepG2 cells [1] is reported as “dose-dependent decrease”. In addition, in the data set on HepG2 cells [2], the “shape of the attached HepG2 cells” value is reported as “shrinkage”, the “nuclei of the attached HepG2 cells” value is recorded as “significantly condensed” and the “number of attached cells (living cells)” value is on record as “remarkably reduced”. In the data set with HepG2 cells [3], the “G2/M phase of the cell cycle as the concentration increased” value is “increased” and the “G2/M phase of the cell cycle” value turned out to be 26.87%. Besides, in the data set with HepG2 cells [4], the “expression of cell apoptosis inducing factors caspase-8, 9, Bax, p53, p21, FAS and FASL” value is recorded as “upregulates”; the “expression of cell apoptosis inhibiting factors Bcl-2 and XIAP” value is given as “downregulates”. Besides, the “expression of cell apoptosis inducing factors caspase-8, 9” value with HepG2 cells [5] was “upregulate”.
